Measured values: US6136801A, “Therapeutic agent with quantitative consumption marker” (U. D. Testing, Inc., priority 1998, dated 2000)

Key:
[1] = Normalized urine compliance marker (diazepam) concentration in patients, FPIA, normalized to urine SG 1.030 and 154 lbs body weight; details: diazepam 2 mg p.o. q12h
[2] = Renal excretion rates as a function of urine volume production rate; format: in vivo, human
Experimental: This constancy has now been experimentally verified by examining the renal excretion rates of methadone, benzodiazepines, other drugs and creatinine and other endogenous metabolites as a function of urine volume production rate. For example, sequential, complete and timed (1-8 hours holding periods) aliquots of urine for 12 compliant control subjects were collected over 24 to 72 hour periods. For each urine aliquot, urine volume production rate (ml/min), specific gravity and creatinine concentration (mg/dl) (as the tested substance) were determined.

**Q.** For `CN1C(=O)CN=C(c2ccccc2)c2cc(Cl)ccc21` [diazepam], which “MEAN NU FOR […]” value ([1]; Experiment #1, patient P-1, methadone 30 mg p.o. q12h) is on record?
**A.** Its value is 500 (SD 90, CV 18%).

**Q.** What about the “MEAN NU FOR […]” value ([1]; Experiment #1, patient P-3, methadone 30 mg p.o. q12h) of the same compound?
**A.** Its value is 499 (SD 73, CV 15%).

**Q.** Which “renal excretion rates during a typical day” value [2] does the source give for `CCC(=O)C(CC(C)N(C)C)(c1ccccc1)c1ccccc1` (stereo not drawn) [methadone] here?
**A.** The value was “relatively constant”.
